Results published in patent publication US20240158439A1, “INHIBITORS OF ANTIGEN PRESENTATION BY MHC CLASS II HLA-DRB1*15:01 MOLECULES WITH ENHANCED METABOLIC STABILITY” (Provid Pharmaceuticals Inc., priority 2021, published 2024).
*1 amine or outer side, *2 acyl side, *3 side chain or, on linkers, in order; H or OH if unused. Where a SMILES comes first, the peptide text is derived from it. Where no end group is shown, it is not given here. [ ]: non-standard residue; d: D form. The star is where a group is joined. ξ: configuration not given here. ξGly(4-Pip(1-amidino)) = N=C(N)N1CCC(C(N)C(=O)O)CC1; Ala(indol-4-yl) = N[C@@H](Cc1cccc2[nH]ccc12)C(=O)O; Phe(3,4-Cl2) = N[C@@H](Cc1ccc(Cl)c(Cl)c1)C(=O)O; X4 = O=C([C@H](Cc1cccc2[nH]ncc12)N[*:1])[*:2]; Trp(1-Me) = Cn1cc(C[C@H](N)C(=O)O)c2ccccc21; X1 = O=C([C@H](Cc1ccc2ccccc2n1)N[*:1])[*:2]; Ala(4-thiazolyl) = N[C@@H](Cc1cscn1)C(=O)O; X3 = Nc1nc(C[C@H](N[*:1])C(=O)[*:2])c[nH]1; Oic = O=C(O)[C@@H]1C[C@@H]2CCCC[C@@H]2N1; Phe(4-F) = N[C@@H](Cc1ccc(F)cc1)C(=O)O; Dab(CONH2) = NC(=O)NCC[C@H](N)C(=O)O; Bta = N[C@@H](Cc1csc2ccccc12)C(=O)O; Igl = N[C@H](C(=O)O)C1Cc2ccccc2C1; hCit = NC(=O)NCCCC[C@H](N)C(=O)O; Tic = O=C(O)[C@@H]1Cc2ccccc2CN1; Cit = NC(=O)NCCC[C@H](N)C(=O)O; Agb = N=C(N)NCC[C@H](N)C(=O)O; Chg = N[C@H](C(=O)O)C1CCCCC1; NHPhenethyl = c1ccc(CCN*)cc1; Tle = CC(C)(C)[C@H](N)C(=O)O; Morpholide = C1CN(*)CCO1; βAla = NCCC(=O)O; Sar = CNCC(=O)O

biological target: T1, HLA-DRB1*15:01 (Homo sapiens, UniProt P01903+P01911); experiment: HLA II binding assay (competitive, biotinylated reference peptide); details: N-methyl amide vs primary amide
T1 construct: endogenous in cells; host or cells: EBV homozygous cell lines (human)

Row | Molecule | loss in binding affinity relative to PV-267
1 | CNC(=O)[C@H](Cc1ccccc1)NC(=O)[C@@H]1Cc2ccccc2CN1C(=O)[C@H](CCCNC(=N)N)NC(=O)[C@@H](NC(=O)[C@@H](NC(C)=O)C(C)C)C1CCCCC1 [PV-625] (Ac-V[Chg]R[Tic]F-NHMe) | 8 fold

same assay, conditions: Table 2, DRB1*15:01 binding; unit inferred, nM; read-out: Avg IC50

Row | Molecule | IC50
2 | CO[C@H](C)[C@H](NC(C)=O)C(=O)N[C@H](C(=O)N[C@@H](CCCNC(=N)N)C(=O)N1Cc2ccccc2C[C@H]1C(=O)N[C@@H](Cc1ccccc1)C(N)=O)C1CCCCC1 [PV-592] (Ac-T(Me)[Chg]R[Tic]F-NH2) | 4.1 nM
3 | CC(=O)N[C@H](C(=O)N[C@H](C(=O)N[C@@H](CCCNC(=N)N)C(=O)N1Cc2ccccc2C[C@H]1C(=O)NCCc1ccccc1)C1CCCCC1)C(C)C [PV-708, reference compound] (Ac-V[Chg]R[Tic]-NHPhenethyl) | 464 nM
4 | CC(=O)N[C@H](C(=O)N[C@H](C(=O)N[C@@H](CCCNC(=N)N)C(=O)N1Cc2ccccc2C[C@H]1C(=O)N[C@@H](Cc1cccc2[nH]ncc12)C(N)=O)C1CCCCC1)C(C)C [PV-676] (Ac-V[Chg]R[Tic][X4]-NH2) | 3 nM
5 | CC(C)[C@H](NC(=O)CCN)C(=O)N[C@H](C(=O)N[C@@H](Cc1ccccc1)C(=O)N[C@@H](Cc1ccccc1)C(=O)N[C@@H](Cc1ccccc1)C(N)=O)C1CCCCC1 [PV-782] (H-[βAla]V[Chg]FFF-NH2) | 150 nM
6 | CC(=O)N[C@H](C(=O)N[C@H](C(=O)N[C@@H](CCNC(=N)N)C(=O)N1Cc2ccccc2C[C@H]1C(=O)N[C@@H](Cc1ccccc1)C(N)=O)C1CCCCC1)C(C)C [PV-562] (Ac-V[Chg][Agb][Tic]F-NH2) | 5.3 nM
7 | CC(C)[C@H](NC(=O)CCN)C(=O)N[C@H](C(=O)N[C@@H](Cc1cscn1)C(=O)N1Cc2ccccc2C[C@H]1C(=O)N[C@@H](Cc1ccccc1)C(N)=O)C1CCCCC1 [PV-833] (H-[βAla]V[Chg][Ala(4-thiazolyl)][Tic]F-NH2) | 17 nM
8 | CC(C)[C@H](NC(=O)CN)C(=O)N[C@H](C(=O)N[C@@H](CCCNC(N)=O)C(=O)N1Cc2ccccc2C[C@H]1C(=O)N[C@@H](Cc1ccccc1)C(N)=O)C1CCCCC1 [PV-661] (H-GV[Chg][Cit][Tic]F-NH2) | 5 nM
9 | CC(=O)N[C@H](C(=O)N[C@H](C(=O)N[C@@H](CCCNC(=N)N)C(=O)N1Cc2ccccc2C[C@H]1C(=O)N[C@@H](Cc1c[nH]c2ccccc12)C(N)=O)C1CCCCC1)C(C)C [PV-579] (Ac-V[Chg]R[Tic]W-NH2) | 1.3 nM
10 | CC(=O)N[C@H](C(=O)N[C@H](C(=O)N[C@@H](CCCNC(=N)N)C(=O)N1Cc2ccccc2C[C@H]1C(=O)N[C@@H](Cc1ccc(F)cc1)C(N)=O)C1CCCCC1)C(C)C [PV-574] (Ac-V[Chg]R[Tic][Phe(4-F)]-NH2) | 2.3 nM
11 | CC(=O)N[C@H](C(=O)N[C@H](C(=O)N[C@@H](CCNC(N)=O)C(=O)N1Cc2ccccc2C[C@H]1C(=O)N[C@@H](Cc1ccccc1)C(N)=O)C1CCCCC1)C(C)C [PV-642] (Ac-V[Chg][Dab(CONH2)][Tic]F-NH2) | 4 nM
12 | CC(=O)N[C@H](C(=O)N[C@H](C(=O)N[C@@H](CCCNC(=N)N)C(=O)N1[C@H](C(=O)N[C@@H](Cc2ccccc2)C(N)=O)C[C@@H]2CCCC[C@@H]21)C1CCCCC1)C(C)C [PV-589, reference compound] (Ac-V[Chg]R[Oic]F-NH2) | 474 nM
13 | CC(=O)N[C@H](C(=O)N[C@H](C(=O)N[C@@H](CCCNC(=N)N)C(=O)N1Cc2ccccc2C[C@H]1C(=O)N[C@@H](Cc1cccc2[nH]ccc12)C(N)=O)C1CCCCC1)C(C)C [PV-493] (Ac-V[Chg]R[Tic][Ala(indol-4-yl)]-NH2) | 1.5 nM
14 | CC(=O)N[C@H](C(=O)N[C@H](C(=O)N[C@@H](C)C(=O)N1Cc2ccccc2C[C@H]1C(=O)N[C@@H](Cc1ccccc1)C(N)=O)C1CCCCC1)C(C)C [PV-560] (Ac-V[Chg]A[Tic]F-NH2) | 43 nM
15 | CC(C)[C@H](NC(=O)CCN)C(=O)N[C@H](C(=O)N[C@@H](CCCNC(N)=O)C(=O)N1Cc2ccccc2C[C@H]1C(=O)N[C@@H](Cc1ccccc1)C(N)=O)C1CCCCC1 [PV-664] (H-[βAla]V[Chg][Cit][Tic]F-NH2) | 2 nM
16 | CC(=O)N[C@H](C(=O)N[C@H](C(=O)N[C@@H](CCCNC(=N)N)C(=O)N1Cc2ccccc2C[C@H]1C(=O)N[C@@H](Cc1ccc2ccccc2n1)C(N)=O)C1CCCCC1)C(C)C [PV-617, reference compound] (Ac-V[Chg]R[Tic][X1]-NH2) | 3450 nM
17 | CC(=O)N[C@H](C(=O)N[C@@H](CCCNC(=N)N)C(=O)N1Cc2ccccc2C[C@H]1C(=O)N[C@@H](Cc1cn(C)c2ccccc12)C(N)=O)C1CCCCC1 [PV-508] (Ac-[Chg]R[Tic][Trp(1-Me)]-NH2) | 213 nM
18 | CC(=O)N[C@H](C(=O)N[C@H](C(=O)N[C@@H](Cc1c[nH]cn1)C(=O)N1Cc2ccccc2C[C@H]1C(=O)N[C@@H](Cc1ccccc1)C(N)=O)C1CCCCC1)C(C)C [PV-580] (Ac-V[Chg]H[Tic]F-NH2) | 28 nM
19 | CC(=O)N[C@H](C(=O)N[C@@H](CCCNC(=N)N)C(=O)N1Cc2ccccc2C[C@H]1C(=O)N[C@@H](Cc1csc2ccccc12)C(N)=O)C1CCCCC1 [PV-477] (Ac-[Chg]R[Tic][Bta]-NH2) | 82 nM

Row | Molecule | IC50
20 | CC(=O)N[C@H](C(=O)N[C@H](C(=O)N[C@@H](Cc1c[nH]c(N)n1)C(=O)N1Cc2ccccc2C[C@H]1C(=O)N[C@@H](Cc1ccccc1)C(N)=O)C1CCCCC1)C(C)C [PV-839] (Ac-V[Chg][X3][Tic]F-NH2) | 25 nM
21 | CNC(=O)[C@H](Cc1ccccc1)NC(=O)[C@@H]1Cc2ccccc2CN1C(=O)[C@H](CCCNC(=N)N)NC(=O)[C@@H](NC(=O)[C@@H](NC(C)=O)C(C)C)C1Cc2ccccc2C1 [PV-629] (Ac-V[Igl]R[Tic]F-NHMe) | 17 nM
22 | CNCC(=O)N[C@H](C(=O)N[C@H](C(=O)N[C@@H](CCCNC(N)=O)C(=O)N1Cc2ccccc2C[C@H]1C(=O)N[C@@H](Cc1ccccc1)C(N)=O)C1CCCCC1)C(C)C [PV-662] (H-[Sar]V[Chg][Cit][Tic]F-NH2) | 4 nM
23 | CC(=O)N[C@H](C(=O)N[C@@H](CCCNC(=N)N)C(=O)N1Cc2ccccc2C[C@H]1C(=O)N[C@@H](Cc1c[nH]c2ccccc12)C(N)=O)C1CCCCC1 [PV-507] (Ac-[Chg]R[Tic]W-NH2) | 48 nM
24 | CC(=O)N[C@H](C(=O)N[C@H](C(=O)NC(C(=O)N1Cc2ccccc2C[C@H]1C(=O)N[C@@H](Cc1ccccc1)C(N)=O)C1CCN(C(=N)N)CC1)C1CCCCC1)C(C)C (stereo partly drawn) [PV-810] (Ac-V[Chg][ξGly(4-Pip(1-amidino))][Tic]F-NH2) | 6 nM
25 | CC(=O)N[C@H](C(=O)N[C@H](C(=O)N[C@@H](CCCNC(=N)N)C(=O)N1Cc2ccccc2C[C@H]1C(=O)N[C@@H](Cc1ccccc1)C(N)=O)C1CCCCC1)[C@@H](C)O [PV-526] (Ac-T[Chg]R[Tic]F-NH2) | 29 nM
26 | CC(=O)N[C@H](C(=O)N[C@H](C(=O)N[C@@H](CCCNC(=N)N)C(=O)N1Cc2ccccc2C[C@H]1C(=O)N[C@@H](Cc1ccccc1)C(N)=O)C1Cc2ccccc2C1)C(C)C [PV-594] (Ac-V[Igl]R[Tic]F-NH2) | 14 nM
27 | CNCC(=O)N[C@H](C(=O)N[C@H](C(=O)N[C@@H](CCCNC(=N)N)C(=O)N1Cc2ccccc2C[C@H]1C(=O)N[C@@H](Cc1ccccc1)C(N)=O)C1CCCCC1)C(C)C [PV-636] (H-[Sar]V[Chg]R[Tic]F-NH2) | 3 nM
28 | Ac-VVRFF-NH2 [PV-73, reference compound] | 2370 nM
29 | CC(C)[C@H](NC(=O)CN)C(=O)N[C@H](C(=O)N[C@@H](CCCNC(=N)N)C(=O)N1Cc2ccccc2C[C@H]1C(=O)N[C@@H](Cc1ccccc1)C(N)=O)C1CCCCC1 [PV-633] (H-GV[Chg]R[Tic]F-NH2) | 1 nM
30 | CC(=O)N[C@H](C(=O)N[C@H](C(=O)N[C@@H](CCCNC(=N)N)C(=O)N1Cc2ccccc2C[C@H]1C(=O)N[C@@H](Cc1csc2ccccc12)C(N)=O)C1CCCCC1)C(C)C [PV-478] (Ac-V[Chg]R[Tic][Bta]-NH2) | 2.1 nM
31 | CC(=O)N[C@H](C(=O)N[C@H](C(=O)N[C@@H](CCCNC(=N)N)C(=O)N1Cc2ccccc2C[C@H]1C(=O)N[C@@H](Cc1ccccc1)C(=O)O)C1Cc2ccccc2C1)C(C)C [PV-624] (Ac-V[Igl]R[Tic]F-OH) | 161 nM
32 | CC(C)[C@H](NC(=O)CCN)C(=O)N[C@H](C(=O)N[C@@H](CCCNC(=N)N)C(=O)N1Cc2ccccc2C[C@H]1C(=O)N[C@@H](Cc1ccccc1)C(N)=O)C1CCCCC1 [PV-638] (H-[βAla]V[Chg]R[Tic]F-NH2) | 2 nM
33 | CC(=O)N[C@H](C(=O)N[C@H](C(=O)N[C@@H](CCCCNC(N)=O)C(=O)N1Cc2ccccc2C[C@H]1C(=O)N[C@@H](Cc1ccccc1)C(N)=O)C1CCCCC1)C(C)C [PV-640] (Ac-V[Chg][hCit][Tic]F-NH2) | 7 nM
34 | CC(=O)N[C@H](C(=O)N[C@H](C(=O)N[C@@H](CCCNC(=N)N)C(=O)N1Cc2ccccc2C[C@H]1C(=O)N[C@@H](Cc1ccc(Cl)c(Cl)c1)C(N)=O)C1CCCCC1)C(C)C [PV-593] (Ac-V[Chg]R[Tic][Phe(3,4-Cl2)]-NH2) | 4.1 nM
35 | CC(=O)N[C@H](C(=O)N[C@H](C(=O)N[C@@H](CCCNC(=N)N)C(=O)N1Cc2ccccc2C[C@H]1C(=O)N[C@@H](Cc1ccccc1)C(N)=O)C1CCCCC1)C(C)(C)C [PV-590] (Ac-[Tle][Chg]R[Tic]F-NH2) | 1.3 nM
36 | CC(=O)N[C@H](C(=O)N[C@@H](CCCNC(=N)N)C(=O)N1Cc2ccccc2C[C@H]1C(=O)N[C@@H](Cc1cccc2[nH]ccc12)C(N)=O)C1CCCCC1 [PV-476] (Ac-[Chg]R[Tic][Ala(indol-4-yl)]-NH2) | 30.1 nM

same assay, conditions: read-out: binding IC50

Row | Molecule | IC50
37 | CNC(=O)[C@H](Cc1ccccc1)NC(=O)[C@@H]1Cc2ccccc2CN1C(=O)[C@H](CCCNC(=N)N)NC(=O)[C@@H](NC(=O)[C@@H](NC(C)=O)C(C)C)C1CCCCC1 [PV-625] (Ac-V[Chg]R[Tic]F-NHMe) | 16 nM
38 | CC(=O)N[C@H](C(=O)N[C@H](C(=O)N[C@@H](CCCNC(=N)N)C(=O)N1Cc2ccccc2C[C@H]1C(=O)N[C@@H](Cc1ccccc1)C(=O)N1CCOCC1)C1CCCCC1)C(C)C [PV-630] (Ac-V[Chg]R[Tic]F-Morpholide) | 33 nM

same assay, conditions: reference peptide, DRB1*1501; read-out: IC50

Row | Molecule | IC50
39 | EAEQLRRAYLDGTGVE [A3 152-166, reference compound] | 14 nM
